The values below come from US20250368963A1, “PROXIMAL-BIASED KIDNEY ORGANOIDS” (UNIVERSITY OF SOUTHERN CALIFORNIA, priority 2024, published 2025).

Data set [1] relates to human iPSC-derived kidney organoids. The data set is described as follows: Comparison of PI3K inhibitors on kidney organoids. It is filed as cell-based.
Description: Small-molecule inhibitor screen and culture optimization: For all small molecule inhibitors used in this study, initial screens were performed on kidney organoids to determine the optimal dosage and duration of culture. […] Concentrations tested used insights from prior studies. After an ideal concentration was established, to determine optimal duration of treatment with the small molecule, separate differentiation experiments were set up with the small molecule from differentiation days 10 to 18, as well as differentiation days 12 to 18. For all optimization screens, time-course bright-field imaging was performed, and organoids were collected for whole-mount immunofluorescent analyses on differentiation day 18. […] Small-molecule inhibitor screen and culture optimization: For all small molecule inhibitors used in this study, initial screens were performed on kidney organoids to determine the optimal dosage and duration of culture. […] After an ideal concentration was established, to determine optimal duration of treatment with the small molecule, separate differentiation experiments were set up with the small molecule from differentiation days 10 to 18, as well as differentiation days 12 to 18. For all optimization screens, time-course bright-field imaging was performed, and organoids were collected for whole-mount immunofluorescent analyses on differentiation day 18.
Data set [2] relates to control and proximal-biased kidney organoids. The data set is described as follows: In vitro cisplatin injury assay. The format is cell-based, human. Conditions: for HNF4A/SOX9 cell state: single cisplatin-dose. As for the experimental part:
In vitro cisplatin injury assay: For the kidney organoid cisplatin injury assay, the study adapted an approach undertaken by two recent studies. Differentiation day 18 control and proximal-biased organoids were incubated overnight (18 hrs) at 37° C./5% CO2 in TeSR-E6 supplemented with 5 μM cisplatin (Millipore Sigma, 232120). […] Uninjured organoids were cultured with DMSO vehicle. Organoids were then processed for immunofluorescent imaging and analyses. In vitro cisplatin injury assay: For the kidney organoid cisplatin injury assay, the study adapted an approach undertaken by two recent studies. Differentiation day 18 control and proximal-biased organoids were incubated overnight (18 hours) at 37° C./5% CO2 in TeSR-E6 supplemented with 5 μM cisplatin (Millipore Sigma, 232120). Organoids recovered between days 19 and 20, before another overnight culture (18 hours) between days 20 and 21 with 5 μM cisplatin. Uninjured organoids were cultured with DMSO vehicle. Organoids were then processed for immunofluorescent imaging and analyses.

The test system of data set [3] is day 21 proximal-biased kidney organoids. The data set is described as follows: Single-nucleus RNA-sequencing of cisplatin-treated PB organoids. The following applies: day 21, double-dose. It is filed as cell-based, human. Here is the method:
Single-nucleus preparation of kidney organoids: For single-nucleus RNA-sequencing, the same number of organoids from multiple independent wells were snap-frozen in liquid nitrogen before nuclei isolation. Briefly, organoids were transferred to a 1.7 mL low binding tube, centrifuged to form a pellet, and snap-frozen in liquid nitrogen. Flash-frozen organoids were dounced in cold Nuclei EZ Lysis Buffer (Sigma, N3408) supplemented with protease inhibitor (Roche, 05892791001). Homogenization was performed using a loose pestle and tight pestle system (Sigma, P0485) with 15 loose-dounce strokes, followed by filtration through a 200 μm strainer (pluriSelect, 43-50200). The homogenate was then subjected to an additional 5 strokes with the tight pestle and incubated on ice for 5 minutes. The suspension was filtered through a 40 μm strainer (pluriSelect, 43-50040) and centrifuged at 500×g for 5 minutes at 4° C. in a swinging-bucket centrifuge. After removing the supernatant, the nuclei pellet was resuspended in just Nuclei EZ Lysis Buffer, incubated on ice for an additional 5 minutes, and centrifuged again. […]
Single-nucleus processing and sequencing: Single-nucleus RNA-sequencing libraries were generated using the 10× Genomics Chromium Next GEM Single Cell Multiome reagents (PN 1000283) following the manufacturer's protocols (10× Genomics; CG000338 Rev E). Briefly, freshly prepared single-nuclei suspensions were counted on a Countess 3 FL cell counter and approximately 9,000 nuclei per condition went through 1 hour of transposition at 37° C. followed by GEM generation and barcoding on a Chromium X machine with immediate subsequent RT reaction. cDNA was generated from 7 preAmp cycles and 8 cDNA cycles. […]
Single-nucleus RNA-sequencing analyses: Single-nucleus RNA-sequencing data was processed using Cell Ranger (v9.0.0) and the Seurat 5.2 R package. […] Feature-barcode matrices were subsequently imported into Seurat using the Read10× function. […]

As for `CS(=O)(=O)N1CCN(Cc2cc3nc(-c4cccc5[nH]ncc45)nc(N4CCOCC4)c3s2)CC1` [GDC-0941], in data set [1] (FIG. 11), the “efficacy relative to LY294002” value is recorded as “slightly less efficacy than LY294002”. The “proximal-biasing phenotype of PI3K inhibition” value in data set [1] (second, structurally different PI3K inhibitor) is listed as “confirmed”.
`N.N.[Cl][Pt][Cl]` [cisplatin]: in data set [2] (ATP1A1 and LAMB1 distribution, injured nephrons), the “tubular integrity and apicobasal polarity” value was “loss of tubular integrity and apicobasal polarity”. For the same compound, the “SOX9 response to injury” value in data set [2] (PB kidney organoid nephrons, double dose) is on record as “activated SOX9”. Further, the “correlation of HNF4A protein levels with γH2AX (r)” value in data set [2] (cisplatin-injured PB nephrons, day 21) is −0.67. The “sensitivity of PB nephrons” value in data set [2] (day 18, 5 μM, 72 hrs) is listed as “sensitive”. Moreover, the “uninterrupted tubular lumens longer in uninjured samples” value in data set [2] (day 21 PB organoids, uninjured vs injured) was found to be 2.82 fold. Moreover, the “KIM1/HAVCR1 protein abundance higher in PB organoid nephrons” value in data set [2] (day 21 following injury, PB vs control organoid nephrons) was 1.56 fold. Further, the HNF4A/SOX9 cell state entry is reported as “HNF4AHIGH/SOX9LOW” in data set [2] (1 day post-injury), “HNF4AMED/SOX9MED” in data set [2] (3 days post-injury) and “HNF4ALOW/SOX9HIGH” in data set [2] (6 days post-injury). The “KIM1/HAVCR1 in HNF4A+ PB nephron cells” value in data set [2] (two staggered doses 5 μM, assayed 3 days after initial injury, PB organoids) was “strong detection”. In addition, in data set [2] (two staggered doses 5 μM, control organoids), the “KIM1/HAVCR1 in injured control organoids” value is “sparse”. Moreover, in data set [3] (vs uninjured), the “HAVCR1 and SOX9 detection in injured cells” value is “higher detection”. In data set [3] (proximal subset), the KRT17 detection entry is “exclusively detected in the injured population”. The “cells positive for injury markers that originated from the injured population” value in data set [3] (proximal subset) is “approximately 75%”.
